Results as given in ChEMBL document CHEMBL4613288, “Combined Peptide and Small-Molecule Approach toward Nonacidic THIQ Inhibitors of the KEAP1/NRF2 Interaction” (ACS Med Chem Lett, 2020).

Test: Apparent permeability across apical to basolateral side in MDCK-MDR1 cells measured over 60 mins
Format: ADME, cell-based, Canis lupus familiaris
Settings: dog

| Compound | Papp A→B at 1 h [×10⁻⁶ cm/s] |
| --- | --- |
| O=C(O)[C@H]1CCCC[C@H]1C(=O)N1CCc2c(OCCO)cccc2[C@H]1CN1C(=O)c2ccccc2C1=O | 0.9 |
| O=C(OCc1ccccc1)[C@H]1CCCC[C@H]1C(=O)N1CCc2c(OS(=O)(=O)C(F)(F)F)cccc2C1CN1C(=O)c2ccccc2C1=O (some centres not stated) | 4.6 |
